Results from patent US9693564B2, “Water based antimicrobial composition using benzalkonium chloride and cocamidopropyl PG-dimonium chloride phosphate” (SAFEHANDS SOLUTIONS, LLC, priority 2011, dated 2017).

System: Staphylococcus aureus
Experiment: Antimicrobial effectiveness testing (log reduction of bacteria, 15 seconds exposure)
Assay type: cell-based
Details: 15 seconds at 25±1° C., undiluted
Protocol: The tests were performed on broth cultures that were passed through at least three consecutive daily transfers but no more than ten daily transfers. The broth cultures were diluted with the appropriate broth to obtain an inoculum count of 6×10^8 to 1×10^9 CFU/ml (Mac Farland Standard ˜2.0 to 3.0). The test article was used undiluted. The exposure time and temperature was 15 seconds at 25±1° C., respectively. All tests involving the test article were conducted in triplicate. A 4.95 gram sample of the test article was placed in a sterile, screw-top 50 ml polyethylene tube at 25±1° C. The test article was inoculated with 0.05 ml of the test organism at the appropriate concentration. The tube contents were neutralized by the addition of 45 ml of Neutralizer (Tryptic or Trypticase Soy Broth (TSB) with 10% TWEEN 80, 3% Lecithin, 0.5% Sodium thiosulfate and 0.1% Histidine, pH 7.2±0.1) followed by vortexing. One ml of the neutralized sample (10^−1 dilution) was serially diluted in 10-fold steps to 10^−6 for the test article and to 10^−7 for the numbers control using tubes containing 9 ml of AOAC Neutralizer blanks. An inoculum count was determined by 10-fold serial dilutions to 10^−8 using tubes containing 9 ml of AOAC phosphate buffered dilution water. The dilutions were plated in duplicate on Letheen Agar, and plates were incubated in an inverted position for the appropriate time and at a temperature appropriate for the test organism. The test organism was a single species of Staphylococcus aureus.
Antimicrobial effectiveness was determined by calculating the log reduction of bacteria in the test sample. For comparison, the log reduction for a 0.02% CHX-gluconate solution is 0.5, the log reduction for a 0.13% BAC solution is 0.5, and the log reduction for a 1% cocamidopropyl PG-dimonium chloride phosphate solution is 2. When added together, the total log reduction for the three ingredients tested individually is 3.

Question: With `CCCCCCCCCCCC(=O)NCCC[N+](C)(C)CC(O)COP(=O)([O-])OCC(O)C[N+](C)(C)CCCNC(=O)CCCCCCCCCCC.[Cl-].[Cl-].[Na+]` (stereo not drawn) [cocamidopropyl PG-dimonium chloride phosphate] as the molecule, how does the log reduction (1% solution) read?
Answer: 2

Question: Which log reduction (0.13% solution) does the source give for benzalkonium chloride [BAC] here?
Answer: 0.5

Question: With `N=C(NCCCCCCNC(=N)NC(=N)Nc1ccc(Cl)cc1)NC(=N)Nc1ccc(Cl)cc1.O=C(O)[C@H](O)[C@@H](O)[C@H](O)[C@H](O)CO.O=C(O)[C@H](O)[C@@H](O)[C@H](O)[C@H](O)CO` [CHX-gluconate, chlorhexidine gluconate] as the molecule, how does the log reduction (0.02% solution) read?
Answer: 0.5
